How the values were obtained:
[1] = Inhibition of PI3Kbeta in human washed platelets assessed as suppression of ADP-induced platelet aggregation preincubated for 5 mins followed by ADP stimulation after 10 mins by light transmission aggregometric analysis
[2] = molecular target: Phosphatidylinositol 4,5-bisphosphate 3-kinase catalytic subunit beta isoform (Homo sapiens, UniProt P42338); test: Inhibition of PI3Kbeta in human washed platelets assessed as suppression of ADP-induced platelet aggregation preincubated for 5 mins followed by ADP stimulation after 10 mins by light transmission aggregometric analysis
[3] = Inhibition of PI3Kbeta in human platelet-rich plasma assessed as suppression of ADP-induced platelet aggregation preincubated for 5 mins followed by ADP stimulation after 10 mins by light transmission aggregometric analysis

Phosphatidylinositol 4,5-bisphosphate 3-kinase catalytic subunit beta isoform, sequence (P42338 whole entry, canonical isoform): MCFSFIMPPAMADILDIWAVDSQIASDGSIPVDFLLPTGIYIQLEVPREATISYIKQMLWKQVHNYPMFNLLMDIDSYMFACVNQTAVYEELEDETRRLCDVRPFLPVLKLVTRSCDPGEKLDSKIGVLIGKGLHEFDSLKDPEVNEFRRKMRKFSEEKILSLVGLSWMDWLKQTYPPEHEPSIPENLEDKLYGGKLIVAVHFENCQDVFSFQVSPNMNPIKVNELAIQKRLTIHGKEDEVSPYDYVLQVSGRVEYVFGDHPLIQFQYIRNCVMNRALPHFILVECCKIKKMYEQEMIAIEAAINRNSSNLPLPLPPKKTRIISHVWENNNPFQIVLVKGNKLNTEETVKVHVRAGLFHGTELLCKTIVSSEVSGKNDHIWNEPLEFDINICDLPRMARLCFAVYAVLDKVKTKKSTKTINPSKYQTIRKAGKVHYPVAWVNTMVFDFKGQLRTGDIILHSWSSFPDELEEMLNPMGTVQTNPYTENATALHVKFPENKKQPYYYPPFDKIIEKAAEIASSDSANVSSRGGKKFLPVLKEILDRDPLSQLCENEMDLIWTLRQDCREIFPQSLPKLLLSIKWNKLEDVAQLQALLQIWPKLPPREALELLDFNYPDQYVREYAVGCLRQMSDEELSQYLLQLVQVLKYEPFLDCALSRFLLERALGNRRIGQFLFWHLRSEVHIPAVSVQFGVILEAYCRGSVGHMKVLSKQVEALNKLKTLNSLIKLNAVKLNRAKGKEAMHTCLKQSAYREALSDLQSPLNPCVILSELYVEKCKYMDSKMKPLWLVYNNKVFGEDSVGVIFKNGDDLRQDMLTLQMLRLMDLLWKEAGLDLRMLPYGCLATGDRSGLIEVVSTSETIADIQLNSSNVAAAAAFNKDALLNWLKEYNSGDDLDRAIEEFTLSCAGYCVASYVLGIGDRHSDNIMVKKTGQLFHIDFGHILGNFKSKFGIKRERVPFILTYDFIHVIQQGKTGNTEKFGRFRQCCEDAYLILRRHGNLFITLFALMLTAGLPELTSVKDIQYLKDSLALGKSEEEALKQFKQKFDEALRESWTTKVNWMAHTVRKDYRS

| IC50 [1] | IC50 [2] | IC50 [3] | SMILES |
| --- | --- | --- | --- |
| 30 nM |  |  | O=C([C@H]1CCCN1)N1CCN(c2nc(N3CCOCC3)nc(-n3c(C(F)F)nc4ccccc43)n2)CC1 |
|  | 30 nM | 2800 nM | N[C@@H](Cc1ccccc1)C(=O)N1CCN(c2nc(N3CCOCC3)nc(-n3c(C(F)F)nc4ccccc43)n2)CC1 |
| 30 nM |  |  | O=C([C@@H]1CCCN1)N1CCN(c2nc(N3CCOCC3)nc(-n3c(C(F)F)nc4ccccc43)n2)CC1 |
